Source: patent US6677361B2, “Topical formulations for the transdermal delivery of niacin and methods of treating hyperlipidemia” (University of Kentucky Research Foundation, priority 2000, dated 2004)

Key:
hairless mice = test: Erythematous response after topical application of nicotinic acid esters to hairless mice; format: in vivo; conditions: for Erythematous Response: topical, 0.5 to 2.0% (wt/wt) in 200 mg lotion daily for one week, hairless mice; for cutaneous vasodilation: topical niacin esters
Procedure: Female hairless mice (HRS-J. 6-8 weeks old were used.) These were housed in solid bottom cages provided with sterile feed and water […], with a 14:10 light-dark cycle. The nicotinic acid esters of Example 1 were applied with a gloved finger daily to the backs of hairless mice in 200 mg of Vanicream Lite™ skin care lotion (Pharmaceutical Specialties, Inc., containing purified water, white petrolatum, ceteareth alcohol and ceteareth-20, propylene glycol, sorbitol solution, simethicone, glyceryl monostearate, polyethylene glycol monostearate, sorbic acid and BHT) at concentrations in the range of 0.5 to 2.0% (wt/wt) for one week. Control mice received 200 mg of the lotion alone. […] Dorsal and ventral skin samples were immediately frozen in liquid nitrogen and stored at −80° C.

[1] = tested on: apoB100/CETP double transgenic mice; test: Plasma lipid profiles of apoB100/CETP double transgenic mice, transdermal lauryl niacin ester vs oral niacin, 90 days; format: in vivo
Procedure: Niacin intake was estimated from the water consumed.
For topical administration, niacin lauryl esters was applied daily to the shaved backs of mice in 200 mg of lotion at concentrations of 1, 2, 5 and 10% (wt/wt) for 13 weeks. Per 25-g mouse, the daily topical doses would be in the range of 34 to 340 mg/kg as niacin. Control mice received equal amounts of the vehicle lotion alone. A lipid analysis was performed as described in Example 4.
Improvement of lipid profiles of apoB100/CETP transgenic mice treated with niacin prodrug. The effect of transdermal delivery of lauryl niacin ester on plasma lipid profiles in a comparison with oral niacin in the apoB100/CETP double transgenic mice for 90 days. A total of six groups of six animals were used in this study. For topical administration, lauryl niacin ester was applied daily to the shaved backs of mice. For oral administration, niacin (sodium salt) was dissolved in the drinking water.

mice = conditions: oral niacin; study not named at the place
Procedure: Additionally, a plasma lipid analysis was performed by taking fasting (16 h) blood samples of the hairless mice were obtained at the beginning, at 30 days and 60 days from the retroorbital plexus, and at the end of treatment by cardiac puncture. The animals were euthanized by cardiac injection of pentobarbital prior to blood collection. Blood was collected into microfuge tubes containing 10 μl of heparin, plasma separated by centrifugation at 2,000×g for 15 minutes and stored at -80° C. until analysis within 1 week. Total cholesterol, HDL-C and triglycerides were measured enzymatically, using a clinical chemistry analyzer Syncrhon CX7 by Beckman). Female apoB/CETP double transgenic mice (Taconic Biotechnology, Germantown, N.Y.) were divided into 6 groups and housed in groups of 6 animals per. […] For oral administration, niacin (sodium salt) was dissolved in drinking water at a concentration of 0.75% (0.63% as free acid). Niacin intake was estimated from the water consumed. The estimated daily niacin intake was approximately 1,400 mg/kg. The oral dose used was 760 mg/kg/day and the topical dose was 250 mg/kg/day as niacin.

[2] = topical, daily to shaved backs, one-fourth the dose of the oral treatment
[3] = oral, sodium salt in drinking water

Row | Compound | Erythematous Response (hairless mice) | further results
1 | CCCCCCCCCCCCCCCCOC(=O)c1cccnc1 [16 carbons] | No | 
2 | CCOC(=O)c1cccnc1 [2 carbons] | Yes | 
3 | CCCCCCCCCCCCOC(=O)c1cccnc1 [12 carbons, lauryl nicotinate] | No | cutaneous vasodilation (hairless mice): no cutaneous vasodilation; HDL-C elevated by [1, 2]: 8%; LDL-C fraction lowered by [1, 2]: 38%; total cholesterol lowered by [1, 2]: 15%; triglycerides lowered by [1, 2]: 33%
4 | CCCCCCCCOC(=O)c1cccnc1 [8 carbons] | Yes | 
5 | CCCCCCCCCCCCCCOC(=O)c1cccnc1 [14 carbons, myristyl nicotinate] | No | cutaneous vasodilation (hairless mice): no cutaneous vasodilation
6 | COC(=O)c1cccnc1 [1 carbon] | Yes | 
7 | CCCCOC(=O)c1cccnc1 [4 carbons] | Yes | 
8 | CCCCCCOC(=O)c1cccnc1 [6 carbons] | Yes | 
9 | CCCCCCCCCCCCCCCCCCOC(=O)c1cccnc1 [18 carbons] | No | 
10 | CCCCCCCCCCCCCOC(=O)c1cccnc1 [13 carbons] | No | 
11 | O=C(O)c1cccnc1 [niacin, nicotinic acid] |  | HDL-C fraction lowered by [1, 3]: 13%; LDL fraction lowered by [1, 3]: 45%; total cholesterol lowered by [1, 3]: 29%; triglycerides lowered by [1, 3]: 37%; total cholesterol lowered by (mice): 12%
12 | CCCCCCCCCCCCCCCOC(=O)c1cccnc1 [15 carbons] | No | 
13 | CCCCCCCCCCOC(=O)c1cccnc1 [10 carbons] | Slight | Erythematous Response (hairless mice; listed as C10 ester): reduced erythematous response
